According to patent US20200002377A1, “COMPOUNDS USEFUL FOR THE TREATMENT AND/OR CARE OF THE SKIN, HAIR, NAILS AND/OR MUCOUS MEMBRANES” (LUBRIZOL ADVANCED MATERIALS, INC., priority 2016, published 2020):

Assays:
[1] = tested on: Nuclear Factor Kappa B subunit 1 (NFKB1); experiment: Innate immune response gene expression in HEKa, real time PCR array; format: cell-based, human; settings: 50 μg/ml, 24 h
Protocol: (§1) HEKa cells (Life Technologies) are seeded at 6.0×10^5 cells/well in 6-well plates and incubated in culture medium Epillfe™ with defined Growth Supplement (EDGS, Life Technologies), at 37° C. in a water-saturated atmosphere of 95% air and 5% CO2. After 24 hours of incubation under these conditions, medium is removed and cells are incubated with 50 μg/ml (w/v) of a peptide of the invention (see Table 16) in fresh culture medium keeping two wells where HEKa cells are incubated with medium only (basal conditions) at 37° C. and 5% CO2.
After 24 h of incubation, the cells are lysed directly in the wells following the protocol described on the RNeasy™ Mini kit (Qiagen) according to the manufacturer's protocol. The lysed cells are homogenized and the RNases are inactivated. The genomic DNA is removed from the samples by using gDNA Eliminator spin columns (Qiagen). Then the samples are passed through special RNA binding columns (Qiagen) and, after several microcentrifugation washes to eliminate contaminants and impurities, the purified RNA is eluted with 50 μl of ultrapure water. Quantification and analysis of purity of RNA samples are performed after RNA elution with a biophotometer (Eppendorf). 1 μg of high-quality RNA is retrotranscribed with iScript™ advanced (BioRad) in a final volume of 20 μl·Complete reaction mix is incubated in a thermal cycler (Eppendorf) at 42° C. for 30 minutes, and the reactions are stopped at 85° C. for 5 minutes. Complementary DNA is amplified by qPCR in a real-time PCR thermocycler (BioRad) using SYBR®Green supermix (BioRad) and a customized plate for use with SYBR®Green (BioRad). SYBR®Green binds to double-stranded DNA molecules and emits fluorescence which is quantified and is proportional to the amount of the product in the PCR reaction. Cycling conditions in BioRad CFX96™ instrument are 95° C. for 3 minutes, followed by 40 cycles of denaturing at 95° C. for 5 seconds, annealing and elongation at 60° C. for 30 seconds. GAPDH (Glyceraldehyde 3-phosphate dehydrogenase), TBP (TATA box binding protein) and HRPT1 (hypoxanthine phosphoribosyltransferase 1) are used as endogenous controls. Fold change relative to the expression of the sample genes and reference genes is calculated using normalized expression (ΔΔ(Ct)) method with default threshold values using CFX Manager Software (BioRad).
(§2) Genes analyzed are Chemokine (C-C motif) Ligand 5 (CCL5), Myeloid Differentiation primary response gene 88 (MyD88), Nuclear Factor Kappa B subunit 1 (NFKB1) and interferon Regulatory Factor 3 (IRF3).

[2] = tested on: Staphylococcus epidermidis; experiment: Adherence of Staphylococcus epidermidis in keratinocytes (HaCaT) in competition with S. aureus bioparticles; format: cell-based; settings: 50 μg/ml, 24 h, basal = 0
Protocol: After that treatment, cells are washed with phosphate-buffered saline (PBS, Sigma) and are then incubated with a solution of Staphylococcus epidermidis (ATCC®12228™, Culture Collections) treated with green-fluorescence calcein AM (Life technologic) and Alexa Fluor 594™ Bioparticles Staphylococcus aureus (ThermoFisher) in PBS for 30 minutes at 37° C. and protected from light. At the end of the incubation period, cells are washed with PBS and fixed in 4% (v/v) paraformaldehyde (PFA, Sigma) for 30 minutes. After rinsing with PBS, the nuclei are stained with Hoechst 33342, trihydrochloride trihydrate (ThermoFisher) in PBS for 10 minutes before analysis.
Cellular imaging is performed by fluorescence microscopy using the Operetta® High Content Imaging System (PerkinElmer). From each fluorescence image, Staphylococcus epidermidis is quantified as a number of spots and normalized against the number of keratinocyte nuclei and the total bacteria number (understood as the addition of detected S. epidermidis spots and S. aureus bioparticles). Each value obtained is normalized respect to basal conditions (non-treated keratinocytes). An image is taken in three different fields per well. 12 representative images from each condition are analyzed with Harmony software (PerkinElmer).
The normalized percentage of Staphylococcus epidermidis respect to basal conditions in treated keratinocytes is represented in Table 17.

[3] = tested on: Tight Junction Protein 1 (TJP1); experiment: Tight junction gene expression in HEKa, real time PCR array; settings: 50 μg/ml, 24 hours
Protocol: HEKa cells (Life Technologies) are seeded at 6.0×10^5 cells/well in 6-well plates and incubated in culture medium Epilife™ with defined Growth Supplement (EDGS, Life Technologies) at 37° C. in a water-saturated atmosphere of 95% air and 5% CO2. After 24 hours of incubation under these conditions, medium is removed and cells are incubated with 50 μg/ml of a peptide of the invention (see Table 12) in fresh culture medium, except for two wells where HEKa cells are incubated with medium only (basal conditions), at 37° C. and 5% CO2.
After 24 hours of incubation, the cells are lysed directly in the wells following the protocol described on the RNeasy™ Mini kit (Qiagen) according to the manufacturer's protocol. The lysed cells are homogenized and the Rnases are inactivated. The genomic DNA is removed from the samples by using gDNA Eliminator spin columns (Qiagen). […] Quantification and analysis of purity of RNA samples are performed after RNA elution with a biophotometer (Eppendorf). […] SYBR Green binds to double-stranded DNA molecules and emits fluorescence which is quantified and is proportional to the amount of the product in the PCR reaction. […] Fold change relative to the expression of the sample genes and reference genes is calculated using normalized expression (ΔΔ(Ct)) method with default threshold values using CFX Manager Software (BioRad).

[4] = tested on: interferon Regulatory Factor 3 (IRF3); experiment: Innate immune response gene expression in HEKa, real time PCR array; settings: 50 μg/ml, 24 h
Protocol: as §1
After 24 h of incubation, the cells are lysed directly in the wells following the protocol described on the RNeasy™ Mini kit (Qiagen) according to the manufacturer's protocol. […] Quantification and analysis of purity of RNA samples are performed after RNA elution with a biophotometer (Eppendorf). […] SYBR®Green binds to double-stranded DNA molecules and emits fluorescence which is quantified and is proportional to the amount of the product in the PCR reaction. […] Fold change relative to the expression of the sample genes and reference genes is calculated using normalized expression (ΔΔ(Ct)) method with default threshold values using CFX Manager Software (BioRad).
as §2

[5] = tested on: tight junction (TJ) barrier in reconstructed human epidermis (RHE); experiment: TJ permeability assay, biotin dye penetration in RHE with SDS; format: cell-based; settings: 24 hours
Protocol: TJ permeability assay using surface biotinylation technique was performed in incubated reconstructed human epidermis (RHE) with EZ-UN Sulfo-NHS-LC-LC-Biotin from the dermal side. The aim of this study is to investigate the ability of peptides of the invention to enhance the barrier function by inhibiting diffusion of the dye through stratum granulosum in presence of sodium dodecyl sulfate (SDS) which causes functional deterioration of TJs.
SkinEthic human tissue models (EpiSkin) are removed from their agarose-nutrient solution in a multiwell plate immediately after arrival and are placed in a 6-well plate in which each well has previously been filled with SkinEthic Growth Medium (EpiSkin). After overnight incubation at 37° C., 5% CO2, tissue models are treated with 50 μg/ml of peptide Ac-Glu-Glu-Met-Gln-Arg-Arg-Ala-NH2 (PEP-2) and a 0.02 mg/ml sodium dodecyl sulfate (SDS, Sigma) solution in growth medium, (1 ml/well). […]
Microscopical observations are performed with a Zeiss fluorescence microscope and photographs of each condition are taken with the associated camera. Fluorescence images of biotin are quantified as the product of its area and the intensity mean value of channel ‘EGFP’ Green (excitation: 488 nm and emission: 509 nm) and normalized by basal conditions. At least 12 representative images from each condition are collected and analyzed with the ZEN software (Zeiss). […]

[6] = tested on: stratum corneum barrier in reconstructed human epidermis (RHE); experiment: Toluidine blue diffusion assay in RHE with SDS; format: cell-based; parameters: key: 4: Strong; 3: Clear; 2: Moderate; 1: Slight; settings: 24 h, SDS 0.02 mg/ml on top layer, peptide 50 μg/ml + SDS
Protocol: The SkinEthic human tissue models (EpiSkin) are removed from their agarose-nutrient solution in the multiwell plate immediately after arrival and are placed in a 6-well plate in which each well has previously been filled with SkinEthic Growth Medium (EpiSkin). After overnight incubation at 37° C., 5% CO2, the top layer of tissue model is treated with 100 μl of a 50 μg/ml solution of peptide Ac-Glu-Glu-Met-Gln-Arg-Arg-Ala-NH2 (PEP-2) in a 0.02 mg/ml sodium dodecyl sulfate (SDS, Sigma) solution in growth medium and dermal side of tissue model is treated with 1 ml of a 50 μg/ml solution of the same peptide in growth medium. The top layer and dermal side of a tissue model is treated with growth medium as basal condition. In another tissue model, its top layer is treated with a 0.02 mg/ml SDS solution in growth medium while its dermal side is treated with growth medium alone, both in absence of peptide, for its use as a positive control. All incubations are performed at 37° C. and 5% CO2 for 24 h.
After the 24-hours treatment, the top layer of tissue models are further treated with 200 μl of methanol for 2 min at room temperature and, after that, they are rinsed twice with 200 μl of phosphate-buffered saline (PBS, Sigma). […] At least 12 representative images from each condition are collected and scored according to the ranking described in Table 14. […]

[7] = tested on: Reconstructed Human Epidermis (RHE); experiment: Lipidomic profile (UPLC-MS) of in vitro epidermal model; format: cell-based; settings: 50 μg/ml, 24 hours, vs basal conditions
Protocol: The SkinEthic human tissue models (EpiSkin™) are removed from their agarose-nutrient solution in the multiwell plate immediately after arrival and are placed in a 6-well plate in which each well has previously been filled with SkinEthic Growth Medium (EpiSkin™). After overnight incubation at 37° C., 5% CO2, Reconstructed Human Epidermis (RHE) are treated with 50 μg/ml of peptides Ac-Glu-Glu-Met-Gln-Arg-Arg-NH2 (PEP-1), Ac-Glu-Glu-Met-Gln-Arg-Arg-Ala-NH2 (PEP-2) or Ac-Glu-Glu-Met-Gln-Arg-Arg-Ala-Asp-NH2 (PEP-3) or medium (basal conditions) for 24 hours at 37° C. and 5% CO2. After the 24 hours treatment, RHE are frozen and stored at −20° C. Each treatment is applied to five RHE per condition.
Epidermal membrane model samples are thawed and removed from the inserts using a scalpel and transferred to homogenization tubes. Samples are mixed with sodium chloride (50 mM) and chloroform/methanol (2/1) (v:v) and homogenized. The extraction solvent is spiked with metabolites not detected in unspiked human serum extracts. After homogenizing the samples, extracts are incubated for 1 hour at −20° C. and centrifuged at 18,000×g for 15 minutes. The organic phase is then collected and dried under vacuum. Dried extracts are finally reconstituted in acetonitrile/isopropanol (1/1) (v:v), centrifuged at 18,000×g for 5 minutes and transferred to vials for UPLCs-MS analysis.
All data are processed using the TargetLynx™ application manager for MassLynx™ 4.1 software (Waters Corp., Milford, USA). A set of predefined retention time, mass-to-charge ratio pairs, Rt-m/z, corresponding to metabolites included in the analysis are fed into the program. Associated extracted ion chromatograms (mass tolerance window=0.05 Da) are then peak-detected and noise-reduced in both the LC and MS domains such that only true metabolite related features are processed by the software. A list of chromatographic peak areas is then generated for each sample injection and value respect to basal conditions is calculated.
Average of five values obtained for each peptide in relation to those obtained for basal conditions (without peptide in the medium) are shown in Table 11.

Ac-EEMQRR-OH [PEP-61, Ac-Glu-Glu-Met-Gln-Arg-Arg-OH]
NFKB1 fold induction respect to basal conditions [1]: 1.71 | S. epidermidis (%), normalized percentage respect to basal conditions [2]: 3.08% | TJP1 fold induction respect to basal conditions [3]: 1.71

H-EEMQRH-NH2 [PEP-57, H-Glu-Glu-Met-Gln-Arg-His-NH2]
NFKB1 fold induction respect to basal conditions [1]: 2.49 | IRF3 fold induction respect to basal conditions [4]: 2.49 | S. epidermidis (%), normalized percentage respect to basal conditions [2]: 13.57%

CCCCCCCCCCCCOS(=O)(=O)[O-].[Na+] [SDS, sodium dodecyl sulfate, reference compound]
Fold change with respect to basal condition (biotin fluorescence) ([5]; treatment from dermal side): 1.90 | Total score (Toluidine Blue staining) [6]: 4

Ac-EEMQRRA-NH2 [PEP-2, Ac-Glu-Glu-Met-Gln-Arg-Arg-Ala-NH2]
penetration of biotin to stratum corneum (result in words) ([5]; peptide 50 μg/ml with 0.02 mg/ml SDS): able to strengthen the tight junction (TJ) barrier | Total score (Toluidine Blue staining) [6]: 2 | NFKB1 fold induction respect to basal conditions [1]: 2.19 | S. epidermidis (%), normalized percentage respect to basal conditions [2]: 24.69% | Cer_AP48 N-(alpha-hydroxyacyl) phytosphingosines [7]: 1.37 fold change | Cer_NP48 N-acyl phytosphingosines [7]: 1.24 fold change | Cer_NP49 N-acyl phytosphingosines [7]: 1.23 fold change | Cer_NP50 N-acyl phytosphingosines [7]: 1.23 fold change | Cer_NP51 N-acyl phytosphingosines [7]: 1.19 fold change | Cer_NS50 N-acyl sphingosines [7]: 1.18 fold change | Cer_NS51 N-acyl sphingosines [7]: 1.13 fold change | Cer_NS52 N-acyl sphingosines [7]: 1.37 fold change | Cer_NdS47 N-acyl dihydrosphingosines [7]: 1.10 fold change | Cer_NdS48 N-acyl dihydrosphingosines [7]: 1.23 fold change | Cer_NdS49 N-acyl dihydrosphingosines [7]: 1.46 fold change | Cer_NdS50 N-acyl dihydrosphingosines [7]: 1.50 fold change

Ac-EQMQRR-NH2 [PEP-50, Ac-Glu-Gln-Met-Gln-Arg-Arg-NH2]
NFKB1 fold induction respect to basal conditions [1]: 2.25 | IRF3 fold induction respect to basal conditions [4]: 2.25 | S. epidermidis (%), normalized percentage respect to basal conditions [2]: 4.14%
